Reference: patent publication US20180153837A1, “METHODS OF IMPROVING PHYSIOLOGICAL RESPONSES RELATED TO POST-TRAUMATIC STRESS DISORDER THROUGH DIETARY SUPPLEMENTATION” (Natural Alternatives International, Inc., priority 2015, published 2018)
Where two headings read alike, the source gives them in different places.

What was measured:
brain carnosine [1] = settings: for Brain Carnosine Concentrations, Amygdala / Brain Carnosine Concentrations, Cortex / Brain Carnosine Concentrations, Hippocampus / Brain Carnosine Concentrations, Hypothalamus / Brain Carnosine Concentrations, Olfactory bulb / Brain Carnosine Concentrations, Thalamus: 30 days BA, mean ± SD
Method: (§1) Adult male Sprague-Dawley rats weighing 200-250 gm (n=122) were habituated to housing conditions for at least seven days. All animals were housed four per cage in a vivarium with stable temperature and a reversed 12-h light/dark cycle, with unlimited access to food and water. β-alanine was provided with glucomannan in a powder form in an 80:20 blend. Rats were provided with 100 mg of the powder per kg of body mass (a total of 30 mg of powder was dissolved in 25 ml of water). PL treated rats were provided with the vehicle (glucommanan) at the same relative dose. Animals were handled once daily. All testing was performed during the dark phase in dim red light conditions. This study was performed according to the principles and guidelines of the National Institute of Health Guide for the Care and Use of Laboratory Animals. All treatment and testing procedures were approved by the Animal Care Committee of the Ben-Gurion University of the Negev, Israel.
Rats were randomly assigned to one of four treatment groups (n=30 or 31 per group):
(§2) Following the 7-day acclimation period in which all rats received a normal powder diet, they were randomized into the four groups. Following 30-days of either normal diet or β-alanine supplemented diet the rats were exposed to either the PSS or sham protocol. All behavioral tests were conducted 7 days following the PSS or sham protocol, and the rats were then sacrificed 24 hours later and brains were removed. Diets were maintained until the end of the study.
(§3) Following the 30-day supplementation regimen, animals were exposed to the PSS protocol. The PSS protocol consisted of placing the experimental animal on well-soiled cat litter (in use by the cat for 2 days, sifted for stools) for 10 minutes in a closed environment. Control animals were exposed to fresh, unused litter for the same amount of time. The situational reminder consisted of placing animals on fresh, unused cat litter for 15 minutes.
Carnosine concentrations in brain homogenates were determined by LC-MS-MS analysis.
Brains were partially thawed on ice and six brain regions were sampled: cerebral cortex, hypothalamus, hippocampus, amygdala, olfactory bulb, and thalamus. Each sample was weighed and transferred into individual vials for further homogenization.
Brain samples were homogenized in saline (0.9% NaCl; 100 mg/l ml) supplemented with 1 mM EDTA, using Polytron Homogenizer. Homogenates were stored at −20°±5° C. prior to LC/MS/MS analysis. L-Carnosine purchased from Sigma was used to prepare standards for the calibration curve (in ppb). Samples were diluted ×5 prior to analysis. The concentration read from the standard curve was multiplied by the dilution factor and converted to ppm units.

[2] = tested on: animal model of post-traumatic stress disorder (PTSD)
Method: as §1, §2, §3

corticosterone = tested on: corticosterone
Method: as §1
Following the 7-day acclimation period in which all rats received a normal powder diet, they were randomized into the four groups. Following 30-days of either normal diet or β-alanine supplemented diet the rats were exposed to either the PSS or sham protocol. […]
Plates were read at 450 nm. […] All samples were measured in duplicate.

BDNF [3] = tested on: BDNF
Method: as §1, §2

[4] = β-alanine taken as a free amino acid; cited from earlier work
brain carnosine [5] = settings: mice, β-alanine supplemented diet; cited from earlier work
BDNF [6] = settings: mice, β-alanine supplemented diet; cited from earlier work
mice = settings: β-alanine supplemented diet; cited from earlier work
[7] = PSS+BA: rats exposed to PSS, Day 8 post-PSS
[8] = UNEX+BA: rats not exposed to PSS
[9] = PSS+PL compared with PSS+BA (and UNEX groups), 7 days after PSS

In the case of `NCCC(=O)O` [BA, β-alanine], the “Brain Carnosine Concentrations, Amygdala” value (brain carnosine [1]; [7]) is reported as 3.52 ± 3.84 a, c mg · L^−1, the “Brain Carnosine Concentrations, Cortex” value (brain carnosine [1]; [7]) is reported as 6.55 ± 4.90 a, c mg · L^−1 and the “Brain Carnosine Concentrations, Hippocampus” value (brain carnosine [1]; [7]) is reported as 5.58 ± 4.39 a, c mg · L^−1. The “Brain Carnosine Concentrations, Hypothalamus” value (brain carnosine [1]; [7]) was 4.54 ± 4.04 a, c mg · L^−1, the “Brain Carnosine Concentrations, Olfactory bulb” value (brain carnosine [1]; [7]) was 13,109 ± 9,773 mg · L^−1 and the “Brain Carnosine Concentrations, Thalamus” value (brain carnosine [1]; [7]) was 5.97 ± 4.48 a, c mg · L^−1. For the same compound, the “Brain Carnosine Concentrations, Amygdala” value (brain carnosine [1]; [8]) was 2.34 ± 3.04 mg/L, the “Brain Carnosine Concentrations, Cortex” value (brain carnosine [1]; [8]) was 3.78 ± 4.47 a mg · L^−1 and the “Brain Carnosine Concentrations, Hippocampus” value (brain carnosine [1]; [8]) was 3.75 ± 3.98 a mg · L^−1. For the same compound, the “Brain Carnosine Concentrations, Hypothalamus” value (brain carnosine [1]; [8]) was 2.60 ± 2.85 mg/L, the “Brain Carnosine Concentrations, Olfactory bulb” value (brain carnosine [1]; [8]) was 8,309 ± 6,887 mg · L^−1 and the “Brain Carnosine Concentrations, Thalamus” value (brain carnosine [1]; [8]) was 3.99 ± 5.10 a mg · L^−1. The “Brain carnosine concentrations in the hippocampus and other brain sections” value (brain carnosine [1]; animals supplemented with BA compared to PL) was “significantly greater”, the “influence on carnosine concentrations in the olfactory bulb” value (brain carnosine [1]; supplemented versus normal diet) was “did not appear to have any influence” and the startle amplitude ([2]; PSS+BA compared with PSS+PL, p=0.085) was “tended to have a lower startle amplitude”. For the same compound, the EPM scores ([2]; PSS+BA compared with UNEX+BA) was “comparable scores to UNEX+BA”, the startle amplitude ([2]; PSS+BA compared with unexposed animals (normal diet p<0.001; BA p=0.0001)) was “significantly greater” and the immobility upon cue ([2]; PSS+BA compared with unexposed animals (normal diet p=0.01; BA p=0.003)) was “significantly greater immobility upon cue”. For the same compound, the “freezing, difference” value ([2]; PSS+BA less than PSS+PL, p=0.148) was “approximately 6%”, the “freezing, significance of difference” value ([2]; PSS+BA versus PSS+PL, p=0.148) was “not statistically different” and the “freezing upon cue-exposure (percentage of total time)” value ([2]; PSS+BA, Day 8) was 34.8%. The “number of open arm entries in the EPM” value [2, 9] was “significantly less”, the “time in the open arms of the EPM” value [2, 9] was “significantly less time in the open arms” and the Anxiety index ([2]; PSS+PL compared with PSS+BA, p<0.05) was “higher”. For the same compound, the startle habituation score ([2]; animals exposed to PSS regardless of diet versus unexposed groups, p<0.001) was “significantly lower habituation score”, the lower startle response ([2]; exposed + β-alanine versus exposed not supplemented, p=0.085) was 19% and the lower freezing response ([2]; exposed + β-alanine versus exposed not supplemented, p=0.148) was 15%. The corticosterone concentrations (corticosterone; PSS+BA compared with unexposed animals, p<0.001) was “significantly higher corticosterone concentrations”, the corticosterone concentrations (corticosterone; exposed rats normal diet versus exposed rats BA, p=0.837) was “No significant differences” and the “BDNF expression, CA1 subregion” value (BDNF [3]; PSS+BA compared with PSS+PL, p<0.001) was “significantly greater than exposed rats fed a normal diet”. The “BDNF expression, DG subregion” value (BDNF [3]; PSS+BA compared with PSS+PL, p=0.011) was “greater”, the “BDNF expression, CA1 subregion” value (BDNF [3]; PSS+BA compared with unexposed animals) was “significantly lower than unexposed animals” and the “BDNF expression, DG subregion” value (BDNF [3]; PSS+BA compared with unexposed animals (p=0.765, p=0.818)) was “not statistically different”. The “BDNF expression in unexposed rats” value (BDNF [3]; UNEX+BA versus UNEX+PL) was “did not appear to increase BDNF expression”, the “duration of flushing/tingling of the skin” value [4] was “less than 60 minutes” and the “brain carnosine concentrations in the cerebral cortex and hypothalamus” value (brain carnosine [5]) was “increase brain carnosine concentrations”. For the same compound, the “concentration of BDNF in the hippocampus” value (BDNF [6]) was “increase the concentration of BDNF” and the “activity in the open arms of an elevated plus-maze test” value (mice) was “significantly greater activity”.
